Data: paper PMC6631462, “Quaternary Ammonium Leucine-Based Surfactants: The Effect of a Benzyl Group on Physicochemical Properties and Antimicrobial Activity” (Pharmaceutics, 2019)
“And” between values parts separate entries of the source, which are not always exact repeats. Equal values may be shown once. Read-outs that look alike come from different tables or passages of the source.

Tests used:
[1] = Surface tension measurements (De Nouy ring tensiometry); type: physicochemical; conditions: for 10^6 Γmax (surface excess concentration): Gibbs equation from tensiometry; for 10^6 Γmax (surface excess concentration) / CMC / γCMC (surface tension at CMC): 25 °C; for 10^6 Γmax (surface excess concentration) / Amin (area per molecule at water–air interface): mean ± SD; for Amin (area per molecule at water–air interface): derived from Γmax; for CMC / γCMC (surface tension at CMC): ultrapure water, tensiometry, mean ± SD of three replicates
Experimental: Different concentrations for each surfactant were prepared by dissolving the compounds in ultrapure water. Their ability to decrease air–water surface tension was studied at 25 °C using a DCA-100 tensiometer (First Ten Angstrom, Portsmouth, VA, USA) according to the De Nouy ring method. Each recorded surface tension value was the mean of three consecutive measurements. The ‘breakpoint’ of the plot of surface tension versus concentration of surfactant was used to calculate the critical micelle concentration (CMC, i.e., the minimum concentration at which surfactants aggregate to form micelles) and the surface tension at CMC (γCMC). The “breakpoint” is the point of intersection of the two lines fitting the experimental data by a linear regression model (Prism version 5.0, GraphPad Inc., San Diego, CA, USA). Tensiometric measurements allowed for the calculation of an additional two parameters related to the surface behaviour of surfactants. The first is the ‘surface excess concentration’, Γmax, which is a measure of how many surfactant molecules are adsorbed at the air–water interface, which was calculated using the Gibbs equation:(1) Γmax=1/2.303 nRT (δγ/δlogC) where R is the gas constant (8.314 J/mol K); T is the absolute temperature (K); n is equal to 1 for single chain ionic surfactants displaying only one ionisable group; and dγ/d log C can be calculated from the slope of the straight section before the CMC in the plot of surface tension versus concentration of the surfactant.
The other parameter is the area occupied by a single molecule of surfactant at the water–air interface (As), and is derived from Γmax through the equation:(2) Amin= 10^18/NΓmax.
All analyses were performed in triplicate.

Caco-2 cells [2] = test: MTS cytotoxicity assay on Caco-2 cells; type: cell-based; conditions: Caco-2, concentration causing 50% reduction of viable cells, mean ± SD
Experimental: (§1) Colorectal-carcinoma-derived epithelial Caco-2 cells (European Collection of Cell Cultures) and airway epithelial Calu-3 cells (American Type Culture Collection; ATCC) were cultured in DMEM supplemented with 10% of FBS and 1% of an antibiotic–antimycotic mixture. Erythrocytes were collected from mice blood. The cytotoxicity of the N-benzyl quaternary ammonium surfactants derived from leucine in comparison to the commercial BAC was studied by performing two cytotoxicity assays (MTS and LDH as indicators of metabolic activity and membrane integrity, respectively) and by a haemolytic assay. The assays were conducted as reported in our previous publications. EC50 values from the MTS assay (concentration of surfactant that causes 50% cell death) and the LDH assay (concentration of surfactants that causes 50% LDH release from cells), as well as HC50 values from the haemolytic assay (concentration of surfactants that causes 50% haemoglobin release from erythrocytes) were calculated using a nonlinear regression model (Prism version 5.0, GraphPad Inc., San Diego, CA, USA) as follows:(3) Y=BOTTOM+Top−Bottom/1+10^(LogEC50−x) Hill Slope where Top and Bottom are plateaux in the units of the Y axis.

Calu-3 cells [3] = test: MTS cytotoxicity assay on Calu-3 cells; type: cell-based; conditions: Calu-3, concentration causing 50% reduction of viable cells, mean ± SD
Experimental: as §1

Caco-2 cells [4] = test: LDH release assay on Caco-2 cells; type: cell-based; conditions: Caco-2, concentration causing 50% LDH release, mean ± SD
Experimental: as §1

Calu-3 cells [5] = test: LDH release assay on Calu-3 cells; type: cell-based; conditions: Calu-3, concentration causing 50% LDH release, mean ± SD
Experimental: as §1

erythrocytes = test: Haemolytic assay; type: cell-based, mice; conditions: concentration causing 50% haemoglobin release from erythrocytes, mean ± SD
Experimental: as §1

[6] = test system: Enterococcus faecalis ATCC 29212; test: Antimicrobial assay, MIC determination (EUCAST); type: cell-based; conditions: for Selectivity index EC50/MIC: MIC E. faecalis; for MIC: E. faecalis
Experimental: (§2) Bacterial strains were cultured overnight at 35–36 °C in blood agar plates. Minimum inhibitory concentrations (MICs) were determined according to previous reports and following protocols defined by the European Committee on Antimicrobial Susceptibility Testing (EUCAST). MICs against Candida albicans were determined using a similar protocol with some adaptations to the yeast growth and requirements. All tests were done in triplicate. [table]

[7] = test system: Escherichia coli ATCC 25922; test: Antimicrobial assay, MIC determination (EUCAST); type: cell-based; conditions: for Selectivity index EC50/MIC: MIC E. coli; for MIC: E. coli
Experimental: as §2

[8] = test system: Pseudomonas aeruginosa ATCC 27853; test: Antimicrobial assay, MIC determination (EUCAST); type: cell-based; conditions: for Selectivity index EC50/MIC: MIC P. aeruginosa; for MIC: P. aeruginosa
Experimental: as §2

[9] = test system: Staphylococcus aureus ATCC 25923; test: Antimicrobial assay, MIC determination (EUCAST); type: cell-based; conditions: for Selectivity index EC50/MIC: MIC S. aureus; for MIC: S. aureus
Experimental: as §2

[10] = test system: Candida albicans ATCC 24433; test: Antimicrobial assay, MIC determination (adapted to yeast); type: cell-based; conditions: for MIC: C. albicans; for Selectivity index EC50/MIC: MIC C. albicans
Experimental: as §2

[11] = Enterococcus faecalis, ATCC29212, read-out: MIC
[12] = Escherichia coli, ATCC25922, read-out: MIC
[13] = Pseudomonas aeruginosa, ATCC27853, read-out: MIC
[14] = Staphylococcus aureus, ATCC25923, read-out: MIC
[15] = Candida albicans, ATCC24433, read-out: MIC

Row | Compound | 10^6 Γmax (surface excess concentration) [1] | Amin (area per molecule at water–air interface) [1] | CMC [1] | γCMC (surface tension at CMC) [1] | EC50 (Caco-2 cells [2]; Homo sapiens) | EC50 (Calu-3 cells [3]; Homo sapiens) | EC50 (Caco-2 cells [4]; Homo sapiens) | EC50 (Calu-3 cells [5]; Homo sapiens) | Haemolysis HC50 (erythrocytes) | Selectivity index EC50/MIC ([6]; EC50 from MTS assay on Caco-2) | Selectivity index EC50/MIC ([6]; EC50 from MTS assay on Calu-3) | MIC [6, 11] | Selectivity index EC50/MIC ([7]; EC50 from MTS assay on Caco-2) | Selectivity index EC50/MIC ([7]; EC50 from MTS assay on Calu-3) | Selectivity index EC50/MIC ([8]; EC50 from MTS assay on Caco-2) | Selectivity index EC50/MIC ([8]; EC50 from MTS assay on Calu-3) | Selectivity index EC50/MIC ([9]; EC50 from MTS assay on Caco-2) | Selectivity index EC50/MIC ([9]; EC50 from MTS assay on Calu-3) | Selectivity index EC50/MIC ([10]; EC50 from MTS assay on Caco-2) | Selectivity index EC50/MIC ([10]; EC50 from MTS assay on Calu-3) | other results
1 | CCCCCCCCCCCCCCOC(=O)C(CC(C)C)[N+](C)(C)Cc1ccccc1 (stereo not shown) [C14 LEU BENZ] | 7.39 ± 0.31 mol/m^2 | 22.46 ± 1.11 A^2 | 0.12 ± 0.08 mM | ~40 mN/m and 40.35 ± 0.11 mN/m | 13 ± 2 µM | 14 ± 2 µM | 12 ± 2 µM | 14 ± 2 µM | 0.027 ± 0.006 mM | 3.7 | 4.0 | 2 µg/mL and 3.5 µM | 0.5 | 0.5 | 0.06 | 0.06 | 5 | 5.4 | 0.9 | 1.0 | MIC [7, 12]: 16 µg/mL and 27.9 µM; MIC [8, 13]: 128 µg/mL and 223 µM; MIC [9, 14]: 1 µg/mL to 2 µg/mL and 2.6 µM; MIC [10, 15]: 13.9 µM and 8 µg/mL
2 | Benzalkonium chloride [BAC, reference compound] | 5.35 ± 0.27 mol/m^2 | 31.08 ± 1.60 A^2 | around 1 mM and 1.02 ± 0.06 mM | around 30 mN/m and 31.16 ± 0.05 mN/m |  |  |  |  | 0.064 ± 0.004 mM | 11.5 | 7.7 |  | 2.9 | 1.9 | 0.4 | 0.2 | 11.5 | 7.7 | 2.9 | 1.9 | EC50 (Caco-2 cells [2]): 33 ± 1 µM; EC50 (Calu-3 cells [3]): 22 ± 5 µM; EC50 (Caco-2 cells [4]): 48 ± 4 µM; EC50 (Calu-3 cells [5]): 29 ± 5 µM; MIC [6]: 1 mg/L; MIC ([6]; read-out: MIC): 2.9 µM; MIC [7]: 4 mg/L; MIC ([7]; read-out: MIC): 11.5 µM; MIC [8]: 32 mg/L; MIC ([8]; read-out: MIC): 91.8 µM; MIC [9]: 1 mg/L; MIC ([9]; read-out: MIC): 2.9 µM; MIC [10]: 4 mg/L; MIC ([10]; read-out: MIC): 11.5 µM
3 | CCCCCCCCCCCCOC(=O)C(CC(C)C)[N+](C)(C)Cc1ccccc1 (stereo not shown) [C12 LEU BENZ] | 6.10 ± 0.24 mol/m^2 | 27.27 ± 1.34 A^2 | around 1 mM and 0.92 ± 0.11 mM | ~40 mN/m and 40.38 ± 0.13 mN/m | 16 ± 3 µM | 11 ± 2 µM | 19 ± 2 µM | 19 ± 3 µM | 0.054 ± 0.004 mM | 1.5 | 1.0 | 4 µg/mL to 8 µg/mL and 10.6 µM | 0.3 | 0.2 | 0.07 | 0.05 | 1.5 | 1.0 | 0.5 | 0.4 | MIC [7, 12]: 32 µg/mL and 58.6 µM; MIC [8, 13]: 128 µg/mL and 235 µM; MIC [9, 14]: 4 µg/mL to 8 µg/mL and 10.6 µM; MIC [10, 15]: 29.3 µM and 16 µg/mL
4 | CCCCCCCCCCOC(=O)C(CC(C)C)[N+](C)(C)Cc1ccccc1 (stereo not shown) [C10 LEU BENZ] | 6.76 ± 0.22 mol/m^2 | 24.09 ± 1.45 A^2 | 1.88 ± 0.16 mM | around 30 mN/m and 31.75 ± 0.09 mN/m | 160 ± 7 µM | 117 ± 5 µM | 158 ± 15 µM | 187 ± 24 µM | 0.148 ± 0.018 mM |  | 15.2 | 4 µg/mL and 7.7 µM | 1.3 | 0.9 | 0.6 | 0.5 | 42.1 | 30.8 | 1.3 | 0.9 | MIC [7, 12]: 64 µg/mL and 124 µM; MIC [8, 13]: > 128 µg/mL and > 248 µM; MIC [9, 14]: 2 µg/mL and 3.8 µM; MIC [10, 15]: 124 µM and 64 µg/mL
